# Measurements taken from US12295937B2, “Psychoactive medicines and their use for treating psychiatric and neurological conditions and disorders” (Transcend Therapeutics, Inc., priority 2021, dated 2025).
# Marks after values point to notes of the source that are not given here.
# Assays:
# 168 GPCRs [1] = biological target: 168 GPCRs (Homo sapiens, UniProt P30411); assay: β-arrestin GPCR screen (PathHunter / GPCRmax), antagonist mode; details: BDKRB2, Antagonist mode, 10 uM
# 168 GPCRs [2] = biological target: 168 GPCRs (Homo sapiens, UniProt P08588); assay: as above; details: ADRB1, Antagonist mode, 10 uM
# 168 GPCRs [3] = biological target: 168 GPCRs (Homo sapiens, UniProt Q8TDS5); assay: as above; details: OXER1; Antagonist; 1 uM
# SERT = SERT (Rattus norvegicus, UniProt P31652); assay: [3H]5-HT release from rat brain synaptosomes; type: biochemical; design: from tissue; synaptosomes for uptake and release; details: rat brain synaptosomes; read-out: Neurotransmitter release: EC50
# Procedure: Test compounds and synaptosomes were prepared as described for uptake inhibition assays. Synaptosomes treated with [^3H]5-HT, [^3H]DA or [^3H]NE were loaded onto filter chambers containing GF/C filters and placed in a superfusion system. Oxygenated Krebs buffer was perfused through the chambers at a rate of 1.5 mL/minute at 35° C. using either an 8-channel or a 12-channel peristaltic pump. Trapped air bubbles were removed from the filters prior to collecting fractions to ensure an even flow over the synaptosomal bed. After a superfusion period of 45 minutes, 2 basal fractions were collected followed by 6 fractions following the addition of the test drug. […] Scintillation cocktail was added, and the filters counted to determine residual radioactivity. Drug-evoked release of neurotransmitter was calculated by subtracting the average of the two basal fractions (collected prior to the drug addition), from the four fractions collected in the presence of drug. The drug-evoked release was then expressed as a percentage of the basal release. Potassium-evoked release was calculated by subtracting the average of two fractions collected prior to the addition of high KCl buffer from that in the two fractions following addition of high KCl buffer. Potassium-stimulated release was calculated as a percentage of basal release. […]
# [4] = Methylone case series, Cohorts 1 and 2 (CGI-S/CGI-I, safety); type: in vivo, human
# Procedure: CGI-S scale was also evaluated in a subset of patients from Cohort 2 post-treatment. Cohort 2 was evaluated for any observed or reported safety events following a single dosing session. Clinical Global Improvement Scale • Clinical Global Impressions (CGI) scale includes 2 components: CGI-S (“severity”) and CGI-I (“improvement”).
# Only sessions that included methylone dosing were counted as dosing sessions.
# Single sessions occurred for 8 of the 28 cases with no booster in two of these cases. In the remainder of the cases, multiple sessions occurred, and booster doses were used in all or some of the remaining patients ([…]) with multiple booster doses used in some or all of the sessions in 15 patients.
# [5] = Reserpine-induced fibromyalgia model, vonFrey test; type: in vivo, rat; details: 15 mg/kg IP, 30 min before vonFrey test, day 4
# Procedure: In this Example, male Sprague Dawley rats are tested in a behavioral model of FMA based on the protocol from Nakagura et al. (2009) Pain 146:26. This model uses three daily doses of reserpine (1 mg/kg, SC) or 0.5% acetic acid vehicle to reduce pain thresholds (i.e., increase pain perception) in the Von Frey Test (vFT, procedure outlined below).
# Von Frey Test (vFT) procedure: Increasing pain thresholds in this test are consistent with a reduction in pain perception. Prior to the start of dosing, rats are tested for their baseline mechanical pain threshold. For von Frey measurements, animals are placed into wire bottom cubicles with opaque Plexiglas walls, allowing access to the underside of their paws. Animals are habituated to this environment for at least 30 minutes before the start of the von Frey filament application. Static allodynia is measured using Semmes-Weinstein von Frey filaments (Stoelting, Wood Dale, IL). Mechanical allodynia is tested by touching the plantar surface of the animals' left and right hind paws with von Frey filaments which deliver a calibrated amount of force. Each von Frey filament is presented perpendicularly to the plantar surface for approximately 6 seconds of constant application in either ascending or descending strength in a modified up-and-down method (Chaplan et al. (1994) J Neurosci. Meth. 53:55). Stimulation is presented at intervals of several seconds, allowing for apparent resolution of any behavioral responses to previous stimuli. A positive response is noted if the paw is sharply withdrawn. Flinching immediately upon removal of the hair is also considered a positive response. Ambulation is considered an ambiguous response, and, in such cases, the stimulus is repeated.
# VonFrey measurements: Animals were placed into wire bottom cubicles with opaque Plexiglas walls, allowing access to the underside of their paws. […] Static allodynia was measured using Semmes-Weinstein von Frey filaments (Stoelting, Wood Dale, IL). […] The average hindpaw thresholds were determined 60-min post-injection. […]
# Sequence of 168 GPCRs (Homo sapiens, UniProt P08588) (P08588 whole entry): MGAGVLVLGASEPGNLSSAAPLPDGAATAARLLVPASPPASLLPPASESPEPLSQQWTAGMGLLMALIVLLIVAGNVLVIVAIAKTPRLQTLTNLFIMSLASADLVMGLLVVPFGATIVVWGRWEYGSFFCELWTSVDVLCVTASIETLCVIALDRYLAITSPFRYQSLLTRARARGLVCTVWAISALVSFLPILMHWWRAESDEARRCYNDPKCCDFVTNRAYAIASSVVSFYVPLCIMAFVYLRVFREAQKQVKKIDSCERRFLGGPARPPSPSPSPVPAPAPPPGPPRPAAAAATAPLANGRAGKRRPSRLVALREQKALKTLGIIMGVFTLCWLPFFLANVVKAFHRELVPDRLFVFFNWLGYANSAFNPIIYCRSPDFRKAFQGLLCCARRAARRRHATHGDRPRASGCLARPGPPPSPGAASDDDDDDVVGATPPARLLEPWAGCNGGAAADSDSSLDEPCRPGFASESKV
# Sequence of 168 GPCRs (Homo sapiens, UniProt Q8TDS5) (Q8TDS5 whole entry): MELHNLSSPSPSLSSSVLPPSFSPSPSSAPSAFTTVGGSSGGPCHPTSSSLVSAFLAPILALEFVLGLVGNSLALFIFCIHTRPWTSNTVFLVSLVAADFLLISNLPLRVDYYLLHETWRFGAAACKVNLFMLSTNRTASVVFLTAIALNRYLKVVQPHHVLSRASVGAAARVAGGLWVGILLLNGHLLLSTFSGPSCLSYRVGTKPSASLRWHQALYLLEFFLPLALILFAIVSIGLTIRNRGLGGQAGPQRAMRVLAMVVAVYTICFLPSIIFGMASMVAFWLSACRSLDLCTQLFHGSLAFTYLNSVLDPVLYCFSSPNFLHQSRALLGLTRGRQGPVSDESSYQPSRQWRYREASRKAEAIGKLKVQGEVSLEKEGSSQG
# Sequence of 168 GPCRs (Homo sapiens, UniProt P30411) (P30411 whole entry): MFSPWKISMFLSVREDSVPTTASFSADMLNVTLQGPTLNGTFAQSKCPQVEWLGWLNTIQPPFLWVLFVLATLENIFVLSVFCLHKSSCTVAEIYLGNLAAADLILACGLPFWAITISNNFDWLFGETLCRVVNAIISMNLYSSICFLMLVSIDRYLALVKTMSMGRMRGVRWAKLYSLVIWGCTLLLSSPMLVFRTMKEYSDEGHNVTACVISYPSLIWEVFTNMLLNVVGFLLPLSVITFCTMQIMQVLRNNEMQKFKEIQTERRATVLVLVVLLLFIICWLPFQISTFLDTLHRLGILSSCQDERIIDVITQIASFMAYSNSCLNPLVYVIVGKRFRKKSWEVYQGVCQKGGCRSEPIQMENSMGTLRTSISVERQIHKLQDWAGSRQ
# Sequence of SERT (P31652 whole entry, the tested form may be a part): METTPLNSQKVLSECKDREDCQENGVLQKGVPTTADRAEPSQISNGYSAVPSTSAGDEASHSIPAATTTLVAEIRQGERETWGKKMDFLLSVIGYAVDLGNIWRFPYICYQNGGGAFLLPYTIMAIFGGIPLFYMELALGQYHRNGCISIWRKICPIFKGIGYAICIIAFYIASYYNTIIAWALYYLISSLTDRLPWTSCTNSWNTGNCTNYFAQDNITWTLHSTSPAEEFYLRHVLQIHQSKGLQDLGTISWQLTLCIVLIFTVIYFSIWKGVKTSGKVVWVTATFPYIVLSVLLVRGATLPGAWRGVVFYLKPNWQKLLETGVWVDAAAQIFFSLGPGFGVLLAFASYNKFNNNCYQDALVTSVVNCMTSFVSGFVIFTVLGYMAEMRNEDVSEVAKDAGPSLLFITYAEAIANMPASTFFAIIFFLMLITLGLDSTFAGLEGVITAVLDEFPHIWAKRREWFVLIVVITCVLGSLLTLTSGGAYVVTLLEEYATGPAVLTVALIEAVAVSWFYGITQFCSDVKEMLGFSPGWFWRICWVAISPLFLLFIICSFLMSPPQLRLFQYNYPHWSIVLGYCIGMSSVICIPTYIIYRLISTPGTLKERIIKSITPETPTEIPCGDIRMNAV
smiles,measurement,setting,value
"CNC(C)C(=O)c1ccc2c(c1)OCO2 (centres unmarked) [Methylone, 3,4-methylenedioxy-N-methylcathinone]",% Activity,168 GPCRs [1],−2.6%
same,% Activity,168 GPCRs [2],−1.2%
same,% Activity,168 GPCRs [3],2.9%
same,EC50,SERT,620 nM
same,Adverse effects in healthy subjects,"[4]; Cohort 1, 4 subjects, single session, total dose 790 or 870 mg",no adverse effects or after-effects were observed or reported
same,Cases well tolerated with no safety events reported,"[4]; Cohort 2, 25 of 28 cases",89.3%
same,Patients with initial improvement at the first methylone session,"[4]; Cohort 2, 25 of 28 patients",~90%
same,Number of cases with CGI-I 2,"[4]; Cohort 2, N = 28",13
same,Number of cases with CGI-I 3,"[4]; Cohort 2, N = 28",4
same,Number of cases with CGI-I 4,"[4]; Cohort 2, N = 28",0
same,Number of cases with CGI-I 5,"[4]; Cohort 2, N = 28",0
same,Number of cases with CGI-I 6,"[4]; Cohort 2, N = 28",0
same,Number of cases with CGI-I 7,"[4]; Cohort 2, N = 28",0
same,Number of cases with CGI-I 1 (highest observed magnitude of improvement),"[4]; Cohort 2, N = 28 PTSD/MDD patients, oral",11*
same,Patients achieving CGI-I 1 or 2,[4]; Cohort 2 overall,86%
same,Cases reporting a durable effect,"[4]; MDD subset, 6 narratives with durability information",5
same,Patients achieving CGI-I 1 or 2,"[4]; MDD subset, 8/8 patients",100%
same,Patients achieving CGI-I 1 or 2,"[4]; PTSD subset, 16/20 patients",80%
same,Case narratives reporting a durable effect,"[4]; PTSD subset, 16 narratives with durability information",15
same,Paw withdrawal thresholds,[5],significantly increased paw withdrawal thresholds
